The record followed here is patent US20260250325A1, “Antiviral Polypeptide Membrane Fusion Inhibitor, and Preparation Method and Application Thereof” (priority 2025, published 2026).

Where two headings read alike, the source gives them in different places. Where a SMILES comes first, the peptide text is derived from it. The star is where a group is joined. X1 = CC(C)CCCC(C)C1CCC2C3CC=C4CC(OC(=O)CCC(=O)*)CCC4(C)C3CCC12C

As a reminder, the CC50 is the concentration giving 50% cytotoxicity. The term IC50 denotes the concentration that gives 50% inhibition.

Data set [1] can be described thus: Cytotoxicity test in HEp-2 cells (CCK8 cell viability). Format: cell-based. The note with it: human. The procedure, abridged: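 HEp-2 cells seeded at 30,000/well, cultured overnight at 37° C./5% CO2, then exposed to diluted compound for 1 day in 0.5% DMSO. Viability read by CCK8, normalised to untreated-cell and medium-only controls; CC50 from four-parameter variable-slope fit.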

Another data set has as its system RSV A long virus strain. Format: cell-based. The procedure, abridged: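 HEp-2 cells (30000/well) infected with 100 PFU virus premixed 1 h with compound (8 concentrations, duplicate); after 2 h adsorption, cultured 1 day at 37 °C under 0.8% CMC overlay with compound. Plaques immunostained (RSV antibody, TrueBlue) and counted; IC50 and CC50 by non-linear fitting of % inhibition versus virus and cell controls.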

Where [2] appears, read: HEp-2 cells, CCK8, 1 day, read-out: CC50.
[3] abbreviates: RSV A long virus strain, HEp-2 cells, plaque reduction, 1 day, read-out: IC50.

Regarding `CC[C@H](C)[C@H](NC(=O)[C@H](Cc1ccccc1)NC(=O)[C@H](C)NC(=O)[C@H](CC(C)C)NC(=O)[C@H](CO)NC(=O)[C@H](CCC(N)=O)NC(=O)[C@H](CC(N)=O)NC(=O)[C@@H](NC(=O)[C@H](CCCCN)NC(=O)[C@H](CCC(=O)O)NC(=O)[C@H](CC(N)=O)NC(=O)[C@@H](NC(=O)[C@H](CCC(N)=O)NC(=O)[C@H](CCC(=O)O)NC(=O)[C@H](CC(=O)O)NC(=O)[C@H](CO)NC(C)=O)C(C)C)[C@@H](C)CC)C(=O)N[C@@H](CCCNC(=N)N)C(=O)N[C@@H](CCCNC(=N)N)C(=O)N[C@H](C(=O)N[C@@H](CCCNC(=N)N)C(=O)N[C@@H](CCCCN)C(=O)N[C@@H](CC(C)C)C(=O)N[C@@H](CC(C)C)C(=O)N[C@@H](Cc1c[nH]cn1)C(=O)N[C@@H](CC(N)=O)C(=O)N[C@@H](CCC(=O)O)C(=O)N[C@@H](C)C(=O)N[C@@H](C)C(=O)N[C@@H](C)C(=O)N[C@@H](CCCCN)C(=O)N[C@@H](CCCCNC(=O)CCC(=O)OC1CCC2(C)C(=CCC3C2CCC2(C)C(C(C)CCCC(C)C)CCC32)C1)C(N)=O)[C@@H](C)CC` (some centres unmarked) [Compound 31] (Ac-SDEQVNEKINQSLAFIRRIRKLLHNEAAAKK(X1)-NH2), the CC50 at 1 day in data set [1] (setting [2]) was more than 8000 nM. In the data set with RSV A long virus strain (setting [3]), the IC50 is 2220 nM.
On to “Ac-FDFDEFDASISQVNEKINESLAFIRLAFIRKSDELLEAAAKK-NH2 [Compound 24]”, for which, in data set [1] (setting [2]), the CC50 at 1 day was more than 8000 nM. Moreover, in the data set with RSV A long virus strain (setting [3]), the IC50 stood at 2650 nM.
As for `CC[C@H](C)[C@H](NC(=O)[C@H](CCC(=O)O)NC(=O)[C@H](CCC(=O)O)NC(=O)[C@H](CC(C)C)NC(=O)[C@H](CO)NC(=O)[C@H](CCC(=O)O)NC(=O)[C@H](CCC(=O)O)NC(=O)[C@@H](NC(=O)[C@H](CCCCN)NC(=O)[C@H](CCC(=O)O)NC(=O)[C@H](CC(N)=O)NC(=O)[C@@H](NC(=O)[C@H](CCC(N)=O)NC(=O)[C@H](CC(N)=O)NC(=O)[C@@H](NC(=O)[C@H](CCCCN)NC(=O)[C@H](CCC(N)=O)NC(=O)[C@H](CC(N)=O)NC(=O)[C@H](Cc1ccccc1)NC(=O)[C@H](CCC(=O)O)NC(=O)[C@H](C)NC(=O)[C@H](Cc1ccccc1)NC(C)=O)[C@@H](C)CC)C(C)C)[C@@H](C)CC)C(=O)N[C@@H](CCCNC(=N)N)C(=O)N[C@@H](CCCCN)C(=O)N[C@@H](CO)C(=O)N[C@@H](CC(=O)O)C(=O)N[C@@H](CCC(=O)O)C(=O)N[C@@H](CCC(=O)O)C(=O)N[C@@H](CC(C)C)C(=O)N[C@@H](Cc1c[nH]cn1)C(=O)N[C@@H](CC(N)=O)C(=O)N[C@H](C(=O)N[C@@H](CC(N)=O)C(=O)N[C@@H](C)C(=O)N[C@H](C(=O)N[C@H](C(N)=O)[C@@H](C)O)[C@@H](C)O)C(C)C` [Compound 8] (Ac-FAEFNQKINQVNEKIEESLEEIRKSDEELHNVNATT-NH2), the CC50 at 1 day in data set [1] (setting [2]) was more than 8000 nM. Besides, in the data set on RSV A long virus strain (setting [3]), the IC50 came out at 3770 nM.
For `CC[C@H](C)[C@H](NC(=O)[C@H](CO)NC(=O)[C@H](C)NC(=O)[C@H](CC(=O)O)NC(=O)[C@H](Cc1ccccc1)NC(C)=O)C(=O)N[C@@H](CCC(=O)O)C(=O)N[C@@H](CCC(=O)O)C(=O)N[C@H](C(=O)N[C@@H](CC(N)=O)C(=O)N[C@@H](CCCNC(=N)N)C(=O)N[C@@H](CCCNC(=N)N)C(=O)N[C@H](C(=O)N[C@@H](CCC(=O)O)C(=O)N[C@@H](CCC(=O)O)C(=O)N[C@@H](CO)C(=O)N[C@@H](CC(C)C)C(=O)N[C@@H](CCCNC(=N)N)C(=O)N[C@@H](CCCNC(=N)N)C(=O)N[C@H](C(=O)N[C@@H](CCC(=O)O)C(=O)N[C@@H](CCC(=O)O)C(=O)N[C@@H](CO)C(=O)N[C@@H](CC(=O)O)C(=O)N[C@@H](CCCNC(=N)N)C(=O)N[C@@H](CCCNC(=N)N)C(=O)N[C@@H](CC(C)C)C(=O)N[C@@H](CCC(=O)O)C(=O)N[C@@H](C)C(=O)N[C@@H](C)C(=O)N[C@@H](C)C(=O)N[C@@H](CCCCN)C(=O)N[C@@H](CCCCNC(=O)CCC(=O)OC1CCC2(C)C(=CCC3C2CCC2(C)C(C(C)CCCC(C)C)CCC32)C1)C(N)=O)[C@@H](C)CC)[C@@H](C)CC)C(C)C` (some centres unmarked) [Compound 19] (Ac-FDASIEEVNRRIEESLRRIEESDRRLEAAAKK(X1)-NH2), in data set [1] (setting [2]), the CC50 at 1 day came out at 8300 nM. In addition, the IC50 in the data set on RSV A long virus strain (setting [3]) was 16.2 nM.
Taken in the same sequence, the figures for `CC[C@H](C)[C@H](NC(=O)[C@H](CCCCN)NC(=O)[C@H](CCC(=O)O)NC(=O)[C@H](CC(C)C)NC(=O)[C@H](CO)NC(=O)[C@H](CCC(N)=O)NC(=O)[C@H](CC(N)=O)NC(=O)[C@@H](NC(=O)[C@H](CCCCN)NC(=O)[C@H](CCC(=O)O)NC(=O)[C@H](CC(N)=O)NC(=O)[C@@H](NC(=O)[C@H](CCC(N)=O)NC(=O)[C@H](CO)NC(=O)[C@H](C)NC(=O)[C@H](CC(=O)O)NC(=O)[C@H](Cc1ccccc1)NC(=O)[C@@H](NC(=O)[C@H](CC(C)C)NC(=O)[C@H](CCC(=O)O)NC(=O)[C@H](CC(=O)O)NC(=O)[C@H](Cc1ccc(O)cc1)NC(C)=O)C(C)C)C(C)C)[C@@H](C)CC)C(=O)N[C@@H](CCCNC(=N)N)C(=O)N[C@@H](CCCCN)C(=O)N[C@@H](CO)C(=O)N[C@@H](CC(=O)O)C(=O)N[C@@H](CCC(=O)O)C(=O)N[C@@H](CC(C)C)C(=O)N[C@@H](CC(C)C)C(=O)N[C@@H](Cc1c[nH]cn1)C(=O)N[C@@H](CC(N)=O)C(=O)N[C@H](C(N)=O)C(C)C` [Compound 23] (Ac-YDELVFDASQVNEKINQSLEKIRKSDELLHNV-NH2) were more than 8000 nM and 2330 nM.
The matching figures for `CC[C@H](C)[C@H](NC(=O)[C@H](CO)NC(=O)[C@H](C)NC(=O)[C@H](CC(=O)O)NC(=O)[C@H](Cc1ccccc1)NC(=O)[C@H](CCC(=O)O)NC(=O)[C@H](CC(=O)O)NC(=O)[C@H](Cc1c[nH]c2ccccc12)NC(C)=O)C(=O)N[C@@H](CO)C(=O)N[C@@H](CCC(N)=O)C(=O)N[C@@H](CC(N)=O)C(=O)N[C@@H](CCC(=O)O)C(=O)N[C@@H](CCCCN)C(=O)N[C@H](C(=O)N[C@@H](CC(N)=O)C(=O)N[C@@H](CCC(N)=O)C(=O)N[C@@H](CO)C(=O)N[C@@H](CC(C)C)C(=O)N[C@@H](CCC(=O)O)C(=O)N[C@@H](CCC(=O)O)C(=O)N[C@H](C(=O)N[C@@H](CCCNC(=N)N)C(=O)N[C@@H](CCCCN)C(=O)N[C@@H](CO)C(=O)N[C@@H](CC(=O)O)C(=O)N[C@@H](CCC(=O)O)C(=O)N[C@@H](CC(C)C)C(=O)N[C@@H](CC(C)C)C(=O)N[C@@H](Cc1c[nH]cn1)C(=O)N[C@@H](CC(N)=O)C(=O)N[C@@H](CC(N)=O)C(=O)N[C@@H](C)C(=O)N[C@@H](CC(C)C)C(=O)N[C@@H](CCC(=O)O)C(=O)N[C@@H](C)C(=O)N[C@@H](C)C(=O)N[C@@H](C)C(=O)N[C@@H](CCCCN)C(=O)N[C@@H](CCCCNC(=O)CCC(=O)OC1CCC2(C)C(=CCC3C2CCC2(C)C(C(C)CCCC(C)C)CCC32)C1)C(N)=O)[C@@H](C)CC)[C@@H](C)CC` (some centres unmarked) [Compound 39] (Ac-WDEFDASISQNEKINQSLEEIRKSDELLHNNALEAAAKK(X1)-NH2): more than 100000 nM and 113 nM.
Regarding “Ac-SLEQVNKKIEQSLESLKKSDKINQSLEEVNKSDELLEAAAKK-NH2 [Compound 49]”, the CC50 at 1 day in data set [1] was more than 8000 nM. The IC50 with RSV A long virus strain is more than 8000 nM.
As to `CC[C@H](C)[C@H](NC(=O)[C@H](CCC(=O)O)NC(=O)[C@H](CCC(=O)O)NC(=O)[C@H](CC(C)C)NC(=O)[C@H](CO)NC(=O)[C@H](CCC(N)=O)NC(=O)[C@H](CC(N)=O)NC(=O)[C@@H](NC(=O)[C@H](CCCCN)NC(=O)[C@H](CC(C)C)NC(=O)[C@H](CO)NC(=O)[C@H](CCC(N)=O)NC(=O)[C@H](CCC(=O)O)NC(=O)[C@@H](NC(=O)[C@H](CCCCN)NC(=O)[C@H](CCCCN)NC(=O)[C@H](CC(N)=O)NC(=O)[C@@H](NC(=O)[C@H](CCC(=O)O)NC(=O)[C@H](CCC(=O)O)NC(=O)[C@H](CC(=O)O)NC(=O)[C@H](Cc1ccccc1)NC(C)=O)C(C)C)[C@@H](C)CC)[C@@H](C)CC)C(=O)N[C@@H](CCCNC(=N)N)C(=O)N[C@@H](CCCCN)C(=O)N[C@@H](CO)C(=O)N[C@@H](CCC(=O)O)C(=O)N[C@@H](C)C(=O)N[C@@H](C)C(=O)N[C@@H](C)C(=O)N[C@@H](CCCCN)C(=O)N[C@@H](CCCCNC(=O)CCC(=O)OC1CCC2(C)C(=CCC3C2CCC2(C)C(C(C)CCCC(C)C)CCC32)C1)C(N)=O` (some centres unmarked) [Compound 34] (Ac-FDEEVNKKIEQSLKINQSLEEIRKSEAAAKK(X1)-NH2), the CC50 at 1 day in data set [1] (setting [2]) is 1500 nM. Further, the IC50 in the data set with RSV A long virus strain (setting [3]) was more than 2000 nM.
Regarding `CC[C@H](C)[C@H](NC(=O)[C@H](CCCNC(=N)N)NC(=O)[C@H](CCCNC(=N)N)NC(=O)[C@H](CCCNC(=N)N)NC(=O)[C@H](CC(N)=O)NC(=O)[C@@H](NC(=O)[C@H](CCC(=O)O)NC(=O)[C@H](Cc1ccccc1)NC(C)=O)C(C)C)C(=O)N[C@@H](CCC(=O)O)C(=O)N[C@@H](CCC(N)=O)C(=O)N[C@@H](CO)C(=O)N[C@@H](CC(C)C)C(=O)N[C@@H](CCC(=O)O)C(=O)N[C@@H](CCCCN)C(=O)N[C@@H](CO)C(=O)N[C@@H](CC(C)C)C(=O)N[C@@H](CCC(=O)O)C(=O)N[C@@H](CO)C(=O)N[C@@H](CC(C)C)C(=O)N[C@@H](CCC(=O)O)C(=O)N[C@@H](CCC(=O)O)C(=O)N[C@@H](CCC(=O)O)C(=O)N[C@@H](CCC(=O)O)C(=O)N[C@@H](Cc1c[nH]cn1)C(=O)N[C@@H](CO)C(=O)N[C@@H](CC(=O)O)C(=O)N[C@@H](CCCCN)C(=O)N[C@@H](CCCCN)C(=O)N[C@@H](CC(C)C)C(=O)N[C@@H](Cc1c[nH]cn1)C(=O)N[C@@H](CC(N)=O)C(=O)N[C@@H](CCC(=O)O)C(=O)N[C@@H](CC(C)C)C(=O)N[C@@H](Cc1c[nH]cn1)C(N)=O` [Compound 46] (Ac-FEVNRRRIEQSLEKSLESLEEEEHSDKKLHNELH-NH2), in data set [1] (setting [2]), the CC50 at 1 day is more than 8000 nM. Further, in the data set with RSV A long virus strain (setting [3]), the IC50 was more than 8000 nM.
“Ac-WDEFDKKIEEVNKKIEESLKKIEESDKKLEEVNKKLGSGSGK(X1)-NH2 [Compound 11]”: in data set [1] (setting [2]), the CC50 at 1 day is more than 8000 nM. Moreover, the IC50 in the data set with RSV A long virus strain (setting [3]) is 99.1 nM.
